# Measured values taken from patent US20130337028A1, “BIOMIMETIC PEPTIDES FOR BONE AUGMENTATION” (NANOVIS, INC., priority 2010, published 2013).
# Tests used:
# [1] = tested on: Human fetal osteoblasts (hFOB, CRL-11372, ATCC); test: Cell adhesion testing; type: cell-based; conditions: 4 h culture, seeded at 3500 cells/cm^2
# Description: (§1) Human fetal osteoblasts (hFOB, CRL-11372, ATCC) of population numbers 7-11 were cultured in Dulbecco's Modified Eagle's Medium (DMEM, GIBCO) supplemented with 10% fetal bovine serum (FBS, Hyclone) and 1% penicillin/streptomycin (P/S, Hyclone) under standard cell culture conditions (that is, a humidified, 5% CO2/95% air environment at 37° C.). Osteoblasts were seeded onto the petri-dish at a density of 3500 cells/cm^2 and were cultured under standard cell culture conditions for 4 h with peptide concentration discussed. After the prescribed time period, non-adherent cells were removed by sequential phosphate buffered saline (PBS) washings. The remaining cells were fixed using 10% normal buffered formaldehyde (Fisher Scientific) for 10 min and 0.1% Triton X-100 (Sigma-Aldrich) for 5 min. Adherent cells were counted in five random fields per substrate under a Zeiss Axiovert 200M fluorescence microscope. Experiments were run in triplicate and repeated three separate times for each substrate.
# [2] = tested on: critical sized bone defect; test: Critical sized bone defect model, proximal tibia and distal femur; type: in vivo, Sinclair minipigs; conditions: with nPLGA and HRN based scaffolds, 4 and 8 weeks, FIG. 6
# Description: A critical sized bone defect model was used in the proximal tibia and distal femur of 12 Sinclair minipigs (Sinclair Research, MO). Time points to be evaluated are 4 weeks and 8 weeks. Four surgical defects (2 tibia and 2 femur) were created on day 0 in all pigs in one limb and on day 28 in all pigs in the opposite limb. Treatments were applied according to predetermined treatment allocations. MRI evaluations of defects were performed at 4 weeks (all limbs) and 8 weeks (initial defects created on day 0). Following euthanasia, defects were evaluated using microCT and histology to measure bone volume fraction within the defects and with mechanical testing to evaluate compressive stiffness and integration with surrounding bone.
# Minipigs were given pre-operative analgesic and antimicrobial drugs immediately prior to anesthesia. Pigs were anesthetized in the Clinical Discovery Laboratory (CDL) using standard swine protocols. One stifle region was aseptically prepared and draped routinely for surgery of the proximal tibia and distal femur. Defects were created in epiphyseal/metaphyseal cancellous bone using an 8 mm drill to a depth of 20 mm. The procedure was repeated in the opposite hind limb at 4 weeks. (Confirmation of the critical defect size in minipigs is to be determined.)
# Minipigs were housed in the animal holding facility room 1094 and monitored post-operatively. […]
# osteoblasts [3] = test: Cell function tests, overall osteoblast function; type: cell-based, human; conditions: summary of total protein, ALP and calcium tests
# Description: (§2) Total intracellular protein content of osteoblasts is extremely important since it is the indication of healthy growth and normal cell response. Thus, the amount of protein produced by cells were measured up to 3 weeks of culture after providing complete media. In order to release the intracellular protein, the adhered cells on the substrates were lysed in DI water using a standard four cycle freeze-thaw method. The resulting lysate solution was then used for analysis. The total protein content were determined by a BCA (bicinchoninic acid) assay kit (Pierce) and the absorbance of the solution were measured using a spectrophotometer at a wavelength of 570 nm. The absorbance was then converted to protein content using an albumin standard curve to determine the amount of intracellular protein.
# (§3) The resulting lysate solution obtained by a four cycle freeze-thaw method was used to measure the ALP activity using a colorimetric assay (Teco). The absorbance of the solution was measured using a spectrophotometer at a wavelength of 590 nm. The absorbance was converted to concentration using ALP standard and all the data were normalized with total protein content to account for changes in number of cells present on surface.
# The calcium content was measured up to 3 weeks in culture using a colorimetric assay (Teco) (see FIG. 4). […]
# [4] = tested on: Human fetal osteoblasts (hFOB, CRL-11372, ATCC); test: Osteoblast proliferation testing (osteoblast density); type: cell-based; conditions: after day 3, seeded at 2500 cells/cm^2, FIG. 2
# Description: as §1
# For osteoblast proliferation studies, similar to the above procedures, osteoblasts were seeded on petri dish at 2500 cells/cm^2 with peptides and cultured for 1, 3 days. After the prescribed time periods, adherent cells were fixed, stained and counted under the fluorescence microscope as described above. All cellular experiments were run in triplicate and repeated at least three times for each substrate.
# osteoblasts [5] = test: Alkaline phosphatase activity of osteoblasts (colorimetric assay); type: cell-based, human; conditions: up to 3 weeks, normalized with total protein content, FIG. 3
# Description: as §3
# osteoblasts [6] = test: Calcium content / calcium deposition by osteoblasts (colorimetric assay); type: cell-based, human; conditions: after 21 days, normalized with total protein content
# Description: The calcium content was measured up to 3 weeks in culture using a colorimetric assay (Teco) (see FIG. 4). After all the lysate was aspirated, the surfaces were soaked overnight in 6 N HCl solution to dissolve the deposited calcium. The calcium solution was then reacted with assay reagents and the absorbance of the solution was measured photometrically at 570 nm. The absorbance was then converted to concentration using calcium standards and all the data were normalized with total protein content to account for changes in the number of cells present on surface.
# osteoblasts [7] = test: Total intracellular protein content of osteoblasts (BCA assay); type: cell-based, human; conditions: after 7 and 14 days, FIG. 5
# Description: as §2
alkaline phosphatase activity (osteoblasts [5]),Substance,osteoblast adhesion to substrates [1],new bone growth (histology) [2],osteoblast function (overall) (osteoblasts [3]),osteoblast density / attachment on peptide coated surfaces [4],calcium deposition (osteoblasts [6]),total proteins synthesized by osteoblasts (osteoblasts [7])
,KRSR (Ac-KRSR-NH2) [reference compound],proved to be crucial for maximal osteoblast adhesion to substrates,showed new bone growth,showed increased osteoblast function,increased osteoblast attachment compared to other peptides studied,,
superiority,KRSRSNVILKKYRN (Ac-KRSRSNVILKKYRN-NH2),,showed new bone growth,showed increased osteoblast function,increased osteoblast attachment compared to other peptides studied,showed highest value compared to other materials studied,showed the highest value compared to other peptides and the control
,SNVILKKYRN,,,,increased osteoblast attachment compared to other peptides studied,,
